{
  "source": "PubChem BioAssay AID1411",
  "about": "(The Scripps Research Institute Molecular Screening Center, 2008)",
  "note": "Active and inactive are the calls of the source. How the calls were made is not given here.",
  "data": [
    {"biological_target": "Signal transducer and activator of transcription 1-alpha/beta (Homo sapiens) (UniProt P42224)", "sequence (P42224 whole entry, looked up)": "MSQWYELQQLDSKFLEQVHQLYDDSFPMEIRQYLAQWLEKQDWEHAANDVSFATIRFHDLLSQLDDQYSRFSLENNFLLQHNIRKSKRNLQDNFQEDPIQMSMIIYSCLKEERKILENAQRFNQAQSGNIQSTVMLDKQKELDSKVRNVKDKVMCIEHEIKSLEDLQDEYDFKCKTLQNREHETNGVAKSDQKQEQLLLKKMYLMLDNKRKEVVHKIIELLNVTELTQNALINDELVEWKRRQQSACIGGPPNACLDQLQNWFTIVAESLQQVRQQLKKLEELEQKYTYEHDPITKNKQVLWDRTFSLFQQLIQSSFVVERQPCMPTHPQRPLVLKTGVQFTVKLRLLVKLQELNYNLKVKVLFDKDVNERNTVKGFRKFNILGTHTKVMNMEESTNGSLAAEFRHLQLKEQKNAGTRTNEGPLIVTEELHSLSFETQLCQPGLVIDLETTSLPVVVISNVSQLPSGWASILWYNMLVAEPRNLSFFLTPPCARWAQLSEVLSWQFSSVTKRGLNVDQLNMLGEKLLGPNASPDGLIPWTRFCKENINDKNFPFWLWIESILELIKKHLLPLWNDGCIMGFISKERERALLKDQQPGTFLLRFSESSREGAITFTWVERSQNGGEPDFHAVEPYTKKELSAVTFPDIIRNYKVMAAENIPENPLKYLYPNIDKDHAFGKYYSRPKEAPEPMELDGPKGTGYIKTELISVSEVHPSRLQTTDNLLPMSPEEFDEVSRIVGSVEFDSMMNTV", "test": "STAT1 reporter inhibitors, potency curves, dose response, counter-screen for STAT3 inhibitor project, cell-based, NIH 3T3, luciferase reporter (AID 1411)", "details": "NIH 3T3 fibroblasts, counterscreen", "values": [
      {"smiles": "COc1ccc(CC(=O)Nc2cccc(SC)c2)cc1OC", "IC50": "> 55.7 µM (inactive)"},
      {"smiles": "O=C(Nc1nccs1)c1ccc(S(=O)(=O)NCC2CCCCC2)cc1", "IC50": "> 55.7 µM (inactive)"},
      {"smiles": "Cn1c(=O)oc2cc(S(=O)(=O)N3CCCC(C(=O)N4CC=C(c5ccccc5)CC4)C3)ccc21", "note": "(stereo not given)", "IC50": "> 55.7 µM (inactive)"},
      {"smiles": "CCCOc1ccc(CSc2nc3ccccc3[nH]2)cc1", "IC50": "> 55.7 µM (inactive)"},
      {"smiles": "NNC(=O)c1cccc(COc2ccccc2Br)c1", "IC50": "inactive"},
      {"smiles": "COc1ccc(/C=N/NC(=S)Nc2cccc(C(=O)O)c2)cc1", "IC50": "inactive"},
      {"smiles": "Cc1cccc(-c2nc3cc(NC(=O)C4CCCO4)ccc3o2)c1", "note": "(stereo not given)", "IC50": "inactive"},
      {"smiles": "Cc1cccc(N2CCN(C(=O)CSCc3c(C)noc3C)CC2)c1C", "IC50": "> 55.7 µM (inactive)"},
      {"smiles": "COC(=O)Oc1ccc(/C=N/NC(=O)CSCc2ccccc2Br)cc1OC", "IC50": "> 55.7 µM (inactive)"},
      {"smiles": "O=C(Oc1ccccc1N1C(=O)C2CCCCC2C1=O)c1ccccc1", "note": "(stereo not given)", "IC50": "> 55.7 µM (inactive)"},
      {"smiles": "CNc1ccccc1C(C)(C)c1cc(-c2ccc(F)cc2)no1", "IC50": "> 55.7 µM (inactive)"},
      {"smiles": "O=C(NC1CC1)c1cc2c(s1)-c1ccccc1OC2", "IC50": "> 55.7 µM (inactive)"},
      {"smiles": "O=C1c2ccc(Br)cc2C(=O)N1c1ccc(Cc2ccncc2)cc1", "IC50": "> 55.7 µM (inactive)"},
      {"smiles": "Cc1ccc(S(=O)(=O)N(C)c2ccc(C(=O)N3CCN(Cc4ccc5c(c4)OCO5)CC3)cc2)cc1", "IC50": "> 55.7 µM (inactive)"},
      {"smiles": "CC(=O)N1CCc2cc(S(=O)(=O)NC3CCCc4ccccc43)ccc21", "note": "(stereo not given)", "IC50": "> 55.7 µM (inactive)"},
      {"smiles": "CC[n+]1ccccc1/C=C/c1ccc(N(C)C)cc1", "IC50": "> 55.7 µM (inactive)"},
      {"smiles": "O=C(Nc1nc(-c2ccc(Cl)s2)cs1)c1ccncc1", "IC50": "> 55.7 µM (inactive)"},
      {"smiles": "C[C@H]1CCC[C@@H](O)CCC/C=C/c2cc(O)cc(O)c2C(=O)O1", "IC50": "> 55.7 µM (inactive)"},
      {"smiles": "Cc1csc(NC(=O)c2cc3c(s2)CCCC3)n1", "IC50": "inactive"},
      {"smiles": "O=C(Nc1ccc(N2CCOCC2)nc1)c1ccc(C(F)(F)F)cc1", "IC50": "> 55.7 µM (inactive)"},
      {"smiles": "Cc1cc(OCC(=O)Nc2ccncc2)ccc1Br", "IC50": "> 55.7 µM (inactive)"},
      {"smiles": "c1ccc(CC2CCN(c3ncnc4sccc34)CC2)cc1", "IC50": "> 55.7 µM (inactive)"},
      {"smiles": "Cc1cc(C)n(Cc2ccc(NC(=O)c3ccc(COc4ccccc4Br)cc3)cc2)n1", "IC50": "> 55.7 µM (inactive)"},
      {"smiles": "O=C(COc1ccc2ccccc2c1)Nc1ccncc1", "IC50": "> 55.7 µM (inactive)"},
      {"smiles": "COc1ccc(NS(=O)(=O)c2ccc(NC(=O)c3ccc(N(C)S(C)(=O)=O)cc3)cc2)cc1", "IC50": "> 55.7 µM (inactive)"},
      {"smiles": "O=C(Nc1ccc(N2CCN(C(=O)c3ccco3)CC2)c(Cl)c1)c1cc2ccccc2o1", "IC50": "inactive"},
      {"smiles": "O=C(Nc1ccc(Oc2ccccc2)cc1)c1cnc2n(c1=O)CCS2", "IC50": "> 55.7 µM (inactive)"},
      {"smiles": "Cc1ccc(-n2nnnc2SCn2nnc3ccccc3c2=O)c(C)c1", "IC50": "> 55.7 µM (inactive)"},
      {"smiles": "COc1ccc2cc(-c3cc(C(=O)OCC(=O)Nc4c(C)n(C)n(-c5ccccc5)c4=O)c4ccccc4n3)ccc2c1", "IC50": "inactive"},
      {"smiles": "CCOc1ncccc1C(=O)OCC(=O)Nc1ccc(-c2nc3ccc(C)cc3s2)cc1", "IC50": "inactive"},
      {"smiles": "Cc1cc(OCC(=O)Nc2ccncc2)cc(C)c1Br", "IC50": "> 55.7 µM (inactive)"},
      {"smiles": "CCCCCCCc1ccc(-c2ccc(O)cc2)nc1", "IC50": "> 55.7 µM (inactive)"},
      {"smiles": "Cc1ccc(N2C(=O)c3ccccc3C2O)nc1", "note": "(stereo not given)", "IC50": "inactive"},
      {"smiles": "COc1ccc(C)cc1-n1nnnc1SCn1nnc2ccccc2c1=O", "IC50": "> 55.7 µM (inactive)"},
      {"smiles": "CCOC(=O)c1oc2ccc(S(=O)(=O)Nc3ccc4c(c3)n(C)c(=O)n4C)cc2c1C", "IC50": "inactive"},
      {"smiles": "CN(C)S(=O)(=O)c1ccc(C(=O)Nc2nc(-c3cccs3)cs2)cc1", "IC50": "> 55.7 µM (inactive)"},
      {"smiles": "O=C(CSc1ccc2ccccc2c1)Nc1ccncc1", "IC50": "> 55.7 µM (inactive)"},
      {"smiles": "CCN(CC)c1ccc(NC(=O)CN2C(=O)CSc3ncccc32)c(C)c1", "IC50": "> 55.7 µM (inactive)"},
      {"smiles": "Cc1nc2sccn2c1-c1csc(NCc2ccccc2)n1", "IC50": "> 55.7 µM (inactive)"},
      {"smiles": "O=C(Nc1ccc(Oc2ccccc2)cc1)C1CCN(c2c3c(nc4ncnn24)CCC3)CC1", "IC50": "> 55.7 µM (inactive)"},
      {"smiles": "O=S(=O)(c1ccc2c(c1)OCCO2)N1CCC(c2nc3ccccc3s2)CC1", "IC50": "> 55.7 µM (inactive)"},
      {"smiles": "O=C1C2C3c4ccccc4C(c4ccccc43)[C@@H]2c2nc3ccccc3n21", "note": "(stereo not given in full)", "IC50": "> 55.7 µM (inactive)"},
      {"smiles": "COc1ccc(Br)cc1/C(C)=N/NC1=NCCN1", "IC50": "> 55.7 µM (inactive)"},
      {"smiles": "O=C(Nc1ccn(Cc2ccccc2F)n1)c1ccc(COc2ccccc2Cl)cc1", "IC50": "> 55.7 µM (inactive)"},
      {"smiles": "O=C(Nc1cccc(O)c1)C(=O)Nc1ccccn1", "IC50": "inactive"},
      {"smiles": "Cn1c(CN2CCCCC2)nc2cc(NC(=O)c3cccc(Br)c3)ccc21", "IC50": "> 55.7 µM (inactive)"},
      {"smiles": "Cc1ccc(-n2ncc3c(SCc4cccnc4)ncnc32)c(C)c1", "IC50": "> 55.7 µM (inactive)"},
      {"smiles": "CC(=O)c1cn(CC(=O)Nc2ccccc2C)c2ccccc12", "IC50": "> 55.7 µM (inactive)"},
      {"smiles": "O=C(Nc1ccncc1)c1ccc(-c2ccccc2)cc1", "IC50": "> 55.7 µM (inactive)"},
      {"smiles": "Cc1ccc(-c2cn3cc([N+](=O)[O-])ccc3n2)cc1", "IC50": "> 18.6 µM (inactive)"}
    ]}
  ]
}
